Test results: patent US6852744B2, “Pyrrolidine derivatives and their use as chymase inhibitor” (Dainippon Pharmaceutical Co., Ltd., priority 2000, dated 2005)
Changes are numbered by the printed parent chain. Counter-ions that a name gives are not always drawn.

How the values were obtained:
[1] = in vivo; details: male, ddy, mouse, po
[2] = target: T1, human chymase (Homo sapiens, UniProt P23946); experiment: Human chymase inhibitory activity (in vitro, angiotensin I substrate); format: biochemical; details: for IC50: recombinant human chymase (COS7 cells), substrate angiotensin I, 37° C., read-out: Human Chymase Inhibition (IC50:nM)
T1 construct: made in house; host or cells: COS7 cells (transient transfection)
T1 sequence (P23946 22-247): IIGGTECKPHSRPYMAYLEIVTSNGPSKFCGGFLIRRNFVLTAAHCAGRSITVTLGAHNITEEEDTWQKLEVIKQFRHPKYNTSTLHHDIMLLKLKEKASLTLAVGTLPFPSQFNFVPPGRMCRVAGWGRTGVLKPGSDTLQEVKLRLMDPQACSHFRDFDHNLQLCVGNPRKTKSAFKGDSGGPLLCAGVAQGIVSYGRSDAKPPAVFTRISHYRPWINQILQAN
Method: (§1) The inhibitory activities of the compounds on monkey chymase and human chymase were tested in vitro. The test compounds are as shown by Compound Nos. in Tables 13 and 14.
Preparation of Human Chymase
Human chymase was produced in mammalian cells using a recombinant DNA technique.
Construction of a human prochymase expression plasmid was performed in the following manner. Briefly, single stranded cDNA was synthesized from human heart mRNA (Clontech Laboratories, Inc.). Polymerase chain reaction amplification was carried out using the cDNA as a template and appropriate pairs of primers. The primer sequences were determined based on the human preprochymase. The amplified product was cloned into the plasmid pUC18, and then recloned into the plasmid pBluescript II KS(+) (Stratagene). Finally, the DNA fragment carrying the entire protein-coding sequences of the human preprochymase was inserted to a transient expression vector by the usual method to yield the human prochymase expression plasmid.
Transfection of COS7 cells with the human prochymase expression plasmid was carried out using the FuGene™ 6 transfection reagent (Boehringer Mannheim). About 7 hours after exposure to DNA, the culture medium was changed to a serum-free one. The culture supernatant was collected after 2 days culture.
Human prochymase was purified from the culture supernatant using a heparin actigel column as described above in the preparation of monkey chymase.
In order to produce active chymase, the human prochymase was incubated with dipeptidylpeptidase I (Sigma). The resultant active human chymase was purified using a heparin actigel column as described above. The active human chymase was eluted with 0.01 mol/1000 ml sodium phosphate buffer pH 7.4 containing 2 mol/1000 ml NaCl.
(§2) Measurement of Chymase Inhibitory Activity (In Vitro Assay)
(§3) The chymase inhibitory activities of compounds I-A of this invention were measured according to the following method. Briefly, the purified monkey or human chymase was diluted to an appropriate concentration with 0.01 mol/1000 ml sodium phosphate buffer, pH 7.4, containing 2 mol/1000 ml KCl and 0.1% Nonidet P-40 and used as enzyme solution. Angiotensin I (Peptide Institute Inc.) was diluted with water to 5 mg/ml and used as substrate solution. Test compounds were serially diluted with 10% DMSO. […] After pre-incubation of the mixture at 37° C., 20 μl of the substrate solution was added to the enzyme-test compound mixture and the new mixture was incubated at 37° C. Fifty μl of 30% trichloroacetic acid solution was finally added to stop the enzymatic reaction.
The amount of L-His-L-Leu was measured as angiotensin II produced by the enzymatic reaction. Briefly, 10 μl of the reaction mixture and 10 μl of 1% orthophthalaldehyde solution dissolved in methanol were mixed with 100 μl of 2 mol/1000 ml NaOH and kept at room temperature. The reaction was then stopped by adding 10 μl of 6 mol/1000 ml HCl. Finally, the fluorescence induced by the reaction was measured using in a photometer with an excitation wavelength of 355 nm and an emission wavelength of 460 nm. Chymase inhibitory activities of test compounds were expressed as 50% inhibitory concentration (IC50).

[3] = target: T2, monkey chymase (Macaca fascicularis, UniProt P56435); experiment: Monkey chymase inhibitory activity (in vitro, angiotensin I substrate); format: biochemical; details: for IC50: chymase purified from monkey cheek pouch and stomach, substrate angiotensin I, 37° C., read-out: Monkey Chymase Inhibition (IC50:nM)
T2 construct: chymase was extracted from homogenized monkey cheek pouch and stomach; from tissue; host or cells: monkey cheek pouch and stomach
T2 sequence (P56435 22-247): T1 sequence (P23946 22-247) with F29S, A44V, E63K, D159Y, S201L, Q221K
Method: as §1
Preparation of Monkey Chymase
Chymase was purified from monkey cheek pouch and stomach in the following manner.
Briefly, chymase was extracted from homogenized monkey cheek pouch and stomach with 0.01 mol/1000 ml sodium phosphate buffer, pH 7.4, containing 2 mol/1000 ml KCl and 0.1% Nonidet P-40 (Amresco Inc.). The solution containing chymase was applied to a heparin actigel column, and the chymase-rich fractions were collected.
as §2
as §3, with “Briefly,” for “The chymase inhibitory activities of compounds I-A of this invention were measured according to the following method. Briefly,”
The amount of L-His-L-Leu was measured as angiotensin II produced by the enzymatic reaction. Briefly, 10 μl of the reaction mixture and 10 μl of 1% orthophthalaldehyde solution dissolved in methanol were mixed with 100 μl of 2 mol/1000 ml NaOH and kept at room temperature. The reaction was then stopped by adding 10 μl of 6 mol/1000 ml HCl.

[4] = tested on: chymase-induced dye leakage; experiment: Skin permeability test: inhibition of vascular permeability (Evans Blue dye leakage); format: in vivo; details: male Hartley guinea pigs, 100 mg/kg orally 1 hour before intradermal injection of human chymase
Method: Skin permeability test was carried out according to the following method. Briefly, male Hartley guinea pigs (350-460 g, Shizuoka Laboratory Animal Center, Japan) were anesthetized by intraperitoneal injection of Nembutal™ (30 mg/kg; Dainippon Pharmaceutical Co., Ltd., Japan). After shaving the guinea pigs dorsa, 50 μl of purified human chymase (Elastin Products Inc., USA) diluted with phosphate buffered saline (PBS) to a concentration of 1.8 units /55 μg protein/ml (1 unit of chymase represents the amount of chymase required to hydrolyze 1.0 μmole of N-benzoyl-L-tyrosine-ethyl ester (BTEE) per minute at 25° C.; pH 7.8) were injected intradermally into three dorsal sites of each animal. […] The amounts of dye leakage into the dorsal skins were measured according to the following method.
Briefly, the area around each injection site (16 mm diameter) was punched out from the inside of the skin, and the leaked dye was extracted by incubation of the punched skin in N,N-dimethylformamide (DMF, 3 ml) at 55° C. overnight. The absorbance of the dye extract was then measured using a spectrophotometer at a wavelength of 620 nm. […] The amount of chymase-induced dye leakage (ACDL) and the amount of solvent-induced dye leakage (ASDL) in each animal were calculated as the average of dye leakage from the three treated dorsal sites in each case. […]

Row | Structure (SMILES) | concentration at 1 h [1] [ng/mL] | IC50 [2] [nM] | IC50 [3] [nM] | inhibitory activity on human chymase (in words) ([2]; summary of Table 14) | inhibitory activity on monkey chymase (in words) ([3]; summary of Table 13) | Dye leakage inhibition rate (%) [4] [%]
1 | Cc1noc(C)c1C(=O)N[C@H](C(=O)N1CCC[C@H]1C(=O)N[C@@H](Cc1ccc2ccccc2c1)C(=O)C(F)(F)F)C(C)C [I-A-2, N-[(1S)-2-((2S)-2-{N-[(1S)-3,3,3-trifluoro-1-(2-naphthylmethyl)-2-oxopropyl]carbamoyl}pyrrolidinyl)-1-(methylethyl)-2-oxoethyl]-(3,5-dimethylisoxazol-4-yl)carboxamide] | 2700 | 83 | 54 |  |  | 
2 | CC(C)[C@H](NC(=O)c1ccc2c(c1)no[n+]2[O-])C(=O)N1CCC[C@H]1C(=O)NC(Cc1ccc2ccccc2c1)C(=O)C(F)(F)F (some centres unmarked) [I-A-53] |  | 69 | 31 |  |  | 
3 | Cc1noc(C)c1C(=O)N[C@@H](C)C(=O)N1CCC[C@H]1C(=O)N[C@@H](Cc1csc2ccccc12)C(=O)C(F)(F)F [I-A-5, N-[(1S)-2-((2S)-2-{N-[(1S)-1-(benzo[b]thiophen-3-ylmethyl)-3,3,3-trifluoro-2-oxopropyl]carbamoyl}pyrrolidinyl)-1-methyl-2-oxoethyl](3,5-dimethylisoxazol-4-yl)carboxamide] | 630 | 83 | 16 |  |  | 
4 | CC(C)[C@H](NC(=O)c1ccc2c(c1)no[n+]2[O-])C(=O)N1CCC[C@H]1C(=O)NC(Cc1ccccc1)C(=O)C(F)(F)F (some centres unmarked) [I-A-54] |  | 90 | 42 |  |  | 
5 | CC(C)[C@H](NC(=O)c1ccoc1)C(=O)N1CCC[C@H]1C(=O)NC(Cc1csc2ccccc12)C(=O)C(F)(F)F (some centres unmarked) [I-A-64] |  | 96 | 73 |  |  | 
6 | CNC1CCN(C(=O)N[C@H](C(=O)N2CCC[C@H]2C(=O)N[C@@H](Cc2ccccc2)C(=O)C(F)(F)F)C(C)C)CC1 [Reference compound (A), [(2S)-1-((2S)-3-methyl-2-{[4-(methylamino)piperidyl]carbonylamino}butanoyl)pyrrolidin-2-yl]-N-[(1S)-3,3,3-trifluoro-2-oxo-1-benzylpropyl]carboxamide hydrochloride, reference compound] |  | 1200 | 1600 | very low chymase inhibitory activity | very low chymase inhibitory activity | 

The next lines start with results.

Row | concentration at 1 h [1] [ng/mL] | IC50 [2] [nM] | IC50 [3] [nM] | inhibitory activity on human chymase (in words) ([2]; summary of Table 14) | inhibitory activity on monkey chymase (in words) ([3]; summary of Table 13) | Structure (SMILES) | Dye leakage inhibition rate (%) [4] [%]
7 | 320 | 50 | 9.3 |  |  | CC[C@H](NC(=O)c1c(C)noc1C)C(=O)N1CCC[C@H]1C(=O)N[C@@H](Cc1csc2ccccc12)C(=O)C(F)(F)F [I-A-3, N-[(1S)-2-((2S)-2-{N-[(1S)-1-(benzo[b]thiophen-3-ylmethyl)-3,3,3-trifluoro-2-oxopropyl]carbamoyl}pyrrolidinyl)-1-ethyl-2-oxoethyl](3,5-dimethylisoxazol-4-yl)carboxamide] | 
8 | 570 | 36 | 5.1 |  |  | Cc1nnsc1C(=O)N[C@H](C(=O)N1CCC[C@H]1C(=O)N[C@@H](Cc1csc2ccccc12)C(=O)C(F)(F)F)C(C)C [I-A-20, N-[(1S)-2-((2S)-2-{N-[(1S)-1-(benzo[b]thiophen-3-ylmethyl)-3,3,3-trifluoro-2-oxopropyl]carbamoyl}pyrrolidinyl)-1-(methylethyl)-2-oxoethyl](4-methyl(1,2,3-thiadiazol-5-yl))carboxamide] | 59
9 |  | 77 | 50 |  |  | Cc1nnsc1C(=O)N[C@H](C(=O)N1CCC[C@H]1C(=O)NC(Cc1ccccc1)C(=O)C(F)(F)F)C(C)C (some centres unmarked) [I-A-96] | 
10 |  | 57 | 31 |  |  | CC(C)[C@H](NC(=O)c1ccc2c(c1)no[n+]2[O-])C(=O)N1CCC[C@H]1C(=O)NC(Cc1csc2ccccc12)C(=O)C(F)(F)F (some centres unmarked) [I-A-52] | 
11 | 940 | 57 | 12 |  |  | CC[C@@H](C)[C@H](NC(=O)c1c(C)noc1C)C(=O)N1CCC[C@H]1C(=O)N[C@@H](Cc1csc2ccccc12)C(=O)C(F)(F)F [I-A-4, N-[1-((1R)-1-methylpropyl)(1S)-2-((2S)-2-{N-[(1S)-1-(benzo[b]thiophen-3-ylmethyl)-3,3,3-trifluoro-2-oxopropyl]carbamoyl}pyrrolidinyl)-2-oxoethyl](3,5-dimethylisoxazol-4-yl)carboxamide] | 
12 |  | 75 | 59 |  |  | Cc1nnsc1C(=O)N[C@H](C(=O)N1CCC[C@H]1C(=O)NC(Cc1cc2ccccc2s1)C(=O)C(F)(F)F)C(C)C (some centres unmarked) [I-A-97] | 
